Results reported in US4450269A, “Mono-5-substituted-3-chloro-4H-1,2,6-thiadiazin-4-one antifungal agents” (FMC Corporation, priority 1980, dated 1984).
Structures can show the parent of a compound that is named as a salt.

How the values were obtained:
Erysiphe polygoni = assay: whole plant or invertebrate; settings: foliar, 24 h, read-out: Percent Disease Control, curative, bean powdery mildew
Rhizoctonia solani = assay: Mycelial growth test; assay type: cell-based; settings: RS; for inhibition at 5 ppm / inhibition at 10 ppm / inhibition at 20 ppm / inhibition at 40 ppm: Rhizoctonia solani, 72 h, read-out: Percent Fungus Growth Inhibition; for Percent Fungus Growth Inhibition: 72 hours
Description: | RS = Rhizoctonia solani

| Molecule | pest or weed control at 150 ppm (Erysiphe polygoni) | inhibition at 5 ppm (Rhizoctonia solani; 5 ppm) | inhibition at 10 ppm (Rhizoctonia solani; 10 ppm) | inhibition at 20 ppm (Rhizoctonia solani; 20 ppm) | inhibition at 40 ppm (Rhizoctonia solani; 40 ppm) | Percent Fungus Growth Inhibition (Rhizoctonia solani; 5 ppm) | Percent Fungus Growth Inhibition (Rhizoctonia solani; 10 ppm) | Percent Fungus Growth Inhibition (Rhizoctonia solani; 20 ppm) | Percent Fungus Growth Inhibition (Rhizoctonia solani; 40 ppm) | Percent Fungus Growth Inhibition (Rhizoctonia solani; 10 ppm, hydrochloride) | Percent Fungus Growth Inhibition (Rhizoctonia solani; 20 ppm, hydrochloride) | Percent Fungus Growth Inhibition (Rhizoctonia solani; 40 ppm, hydrochloride) |
| --- | --- | --- | --- | --- | --- | --- | --- | --- | --- | --- | --- | --- |
| O=c1c(Cl)nsnc1Oc1ccc([N+](=O)[O-])cc1 [Compound 9, 3-chloro-5-(4-nitrophenoxy)-4H--1,2,6-thiadiazin-4-one] | 0% | 13% | 42% | 69% | 78% |  |  |  |  |  |  |  |
| Cc1cc(Cl)ccc1Oc1nsnc(Cl)c1=O [Compound 55, 3-chloro-5-(4-chloro-2-methylphenoxy)-4H--1,2,6-thiadiazin-4-one] | 50% | 33% | 56% | 31% | 53% |  |  |  |  |  |  |  |
| O=c1c(Cl)nsnc1Oc1cccc2ccccc12 [Compound 32, 3-chloro-5(1-naphthoxy)-4H-1,2,6-thiadiazin-4-one] | 90% | 76% | 42% | 69% | 73% |  |  |  |  |  |  |  |
| Cc1cc(C)cc(Oc2nsnc(Cl)c2=O)c1 [Compound 25, 3-chloro-5-(3,5-dimethylphenoxy)-4H--1,2,6-thiadiazin-4-one] | 100% | 20% | 64% | 80% | 78% |  |  |  |  |  |  |  |
| O=c1c(Cl)nsnc1Oc1cccc(Cl)c1 [Compound 13, 3-chloro-5-(3-chlorophenoxy)-4H--1,2,6-thiadiazin-4-one] | 100% | 24% | 53% | 69% | 76% |  |  |  |  |  |  |  |
| O=C(O)Cc1ccccc1Oc1nsnc(Cl)c1=O [Compound 45, 3-(2-carboxymethylphenoxy)-5-chloro-4H--1,2,6-thiadiazin-4-one] | 0% | 0% | 0% | 13% | 42% |  |  |  |  |  |  |  |
| CSc1ccc(Oc2nsnc(Cl)c2=O)cc1 [Compound 39, 3-chloro-5-[(4-methylthio)phenoxy]-4H-1,2,6,-thiadiazin-4-one] | 0% | 24% | 31% | 31% | 42% |  |  |  |  |  |  |  |
| O=c1c(Cl)nsnc1Oc1ccc(F)cc1 [Compound 11, 3-chloro-5-(4-fluorophenoxy)-4H--1,2,6-thiadiazin-4-one] | 100% | 0% | 38% | 76% | 91% |  |  |  |  |  |  |  |
| Cc1cc(Oc2nsnc(Cl)c2=O)ccc1Cl [Compound 54, 3-chloro-5-(4-chloro-3-methylphenoxy)-4H--1,2,6-thiadiazin-4-one] | 0% | 38% | 42% | 42% | 71% |  |  |  |  |  |  |  |
| 3-chloro-5-(bromophenoxy)-4H-1,2,6-thiadiazin-4-one [Compound 33] |  |  |  |  |  | 31% | 42% | 64% | 100% |  |  |  |
| COc1cc(Oc2nsnc(Cl)c2=O)cc(OC)c1C(C)=O [Compound 61, 3-[(4-acetyl-3,5-dimethoxy)-phenoxy]-5-chloro-4H--1,2,6-thiadiazin-4-one] | 0% | 0% | 13% | 33% | 47% |  |  |  |  |  |  |  |
| Nc1ccc(Oc2nsnc(Cl)c2=O)cc1 [Compound 27, 5-(4-aminophenoxy)-3-chloro-4H--1,2,6-thiadiazine-4-one hydrochloride] |  |  |  |  |  |  |  |  |  | 31% | 24% | 64% |
| O=c1c(Cl)nsnc1Oc1cccc(Cl)c1Cl [Compound 19, 3-chloro-5-(2,3-dichlorophenoxy)-4H--1,2,6-thiadiazin-4-one] |  | 29% | 47% | 69% | 82% |  |  |  |  |  |  |  |
| Cc1cc(Oc2nsnc(Cl)c2=O)cc(C)c1Cl [Compound 59, 3-chloro-5-[(4-chloro-3,5-dimethyl)phenoxy]-4H--1,2,6-thiadiazin-4-one] |  | 33% | 24% | 33% | 69% |  |  |  |  |  |  |  |
| Cc1cc(Oc2nsnc(Cl)c2=O)cc(C)c1Br [Compound 60, 3-[(4-bromo-3,5-dimethyl)-phenoxy]-5-chloro-4H--1,2,6-thiadiazin-4-one] |  | 42% | 31% | 42% | 56% |  |  |  |  |  |  |  |
